ChEMBL document CHEMBL1201862, “PubChem BioAssay data set” (2004)
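Following 48 hours of exposure in 96-well plates, responses at five concentrations were used to interpolate endpoints linearly. Abbreviation: GI50, concentration required for 50% inhibition of growth.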 The source made the active and inactive calls. No stated cut-off is given here; in the data, active = GI50 up to about 1.1 µM and inactive = higher.

Key:
Assay in all cases: DTP human tumour cell line panel, 48 h
786-0 = system: 786-0
A498 = system: A498
A549 = system: A549
ACHN = system: ACHN
CAKI-1 = system: CAKI-1
CCRF-CEM = system: CCRF-CEM
COLO 205 = system: COLO 205
DU-145 = system: DU-145
EKVX = system: EKVX
HCC 2998 = system: HCC 2998
HCT-116 = system: HCT-116
HCT-15 = system: HCT-15
HOP-62 = system: HOP-62
HOP-92 = system: HOP-92
K562 = system: K562
KM12 = system: KM12
LOX IMVI = system: LOX IMVI
M14 = system: M14
MCF7 = system: MCF7
MDA-MB-231 = system: MDA-MB-231
MDA-MB-435 = system: MDA-MB-435
MDA-N = system: MDA-N
MOLT-4 = system: MOLT-4
Malme-3M = system: Malme-3M
NCI-H226 = system: NCI-H226
NCI-H23 = system: NCI-H23
NCI-H460 = system: NCI-H460
NCI-H522 = system: NCI-H522
NCI/ADR-RES = system: NCI/ADR-RES
OVCAR-3 = system: OVCAR-3
OVCAR-4 = system: OVCAR-4
OVCAR-5 = system: OVCAR-5
PC-3 = system: PC-3
RPMI-8226 = system: RPMI-8226
RXF 393 = system: RXF 393
SF-268 = system: SF-268
SF-295 = system: SF-295
SF-539 = system: SF-539
SK-MEL-28 = system: SK-MEL-28
SK-MEL-2 = system: SK-MEL-2
SK-MEL-5 = system: SK-MEL-5
SK-OV-3 = system: SK-OV-3
SN12C = system: SN12C
SNB-19 = system: SNB-19
SW-620 = system: SW-620
TK-10 = system: TK-10
U-251 = system: U-251
UACC-257 = system: UACC-257
UACC-62 = system: UACC-62
UO-31 = system: UO-31

NC(=O)NC(=O)c1cnccn1
GI50 (786-0): > 100 µM (inactive)
GI50 (A498): > 100 µM (inactive)
GI50 (A549): > 100 µM (inactive)
GI50 (ACHN): > 100 µM (inactive)
GI50 (CAKI-1): > 100 µM (inactive)
GI50 (CCRF-CEM): > 100 µM (inactive)
GI50 (COLO 205): > 10 µM (inactive)
GI50 (DU-145): > 100 µM (inactive)
GI50 (EKVX): > 100 µM (inactive)
GI50 (HCC 2998): > 100 µM (inactive)
GI50 (HCT-116): > 100 µM (inactive)
GI50 (HCT-15): > 100 µM
GI50 (HOP-62): > 100 µM (inactive)
GI50 (HOP-92): > 100 µM (inactive)
GI50 (K562): > 100 µM (inactive)
GI50 (KM12): > 100 µM (inactive)
GI50 (LOX IMVI): > 100 µM (inactive)
GI50 (M14): > 100 µM (inactive)
GI50 (MCF7): > 100 µM (inactive)
GI50 (MDA-MB-231): > 100 µM (inactive)
GI50 (MDA-MB-435): > 100 µM (inactive)
GI50 (MDA-N): > 100 µM (inactive)
GI50 (MOLT-4): > 100 µM (inactive)
GI50 (Malme-3M): > 100 µM (inactive)
GI50 (NCI-H226): 54.1 µM (inactive)
GI50 (NCI-H23): > 100 µM (inactive)
GI50 (NCI-H460): > 100 µM (inactive)
GI50 (NCI-H522): > 100 µM (inactive)
GI50 (NCI/ADR-RES): > 100 µM (inactive)
GI50 (OVCAR-3): > 100 µM (inactive)
GI50 (OVCAR-4): > 100 µM (inactive)
GI50 (OVCAR-5): > 100 µM (inactive)
GI50 (PC-3): > 100 µM (inactive)
GI50 (RPMI-8226): > 100 µM (inactive)
GI50 (RXF 393): > 100 µM (inactive)
GI50 (SF-268): > 100 µM (inactive)
GI50 (SF-295): > 100 µM (inactive)
GI50 (SF-539): > 100 µM (inactive)
GI50 (SK-MEL-28): > 100 µM (inactive)
GI50 (SK-MEL-2): > 100 µM (inactive)
GI50 (SK-MEL-5): > 10 µM (inactive)
GI50 (SK-OV-3): > 100 µM (inactive)
GI50 (SN12C): > 100 µM (inactive)
GI50 (SNB-19): > 100 µM (inactive)
GI50 (SW-620): > 100 µM (inactive)
GI50 (TK-10): 12.1 µM (inactive)
GI50 (U-251): > 100 µM (inactive)
GI50 (UACC-257): > 100 µM (inactive)
GI50 (UACC-62): > 100 µM (inactive)
GI50 (UO-31): > 100 µM (inactive)
